How the values were obtained:
Type in all cases: in vivo
[1] = tested on: adult unfed cat fleas (Ctenocephalides felis); assay: Ctenocephalides felis oral test; settings: 48 h, read-out: activity (mortality)
Experimental: Ctenocephalides felis—Oral Test
(§1) Solvent: dimethyl sulfoxide
To produce a suitable preparation of active compound, 10 mg of active compound are dissolved in 0.5 mL solvent, and the concentrate is diluted with cattle blood to the desired concentration.
Approximately 20 adult unfed cat fleas (Ctenocephalides felis) are placed in flea chambers. The blood chamber, sealed with parafilm on the bottom, are filled with cattle blood supplied with compound solution and placed on the gauze covered top of the flea chamber, so that the fleas are able to suck the blood. The blood chamber is heated to 37° C. whereas the flea chamber is kept at room temperature.
After 2 days mortality in % is determined. 100% means all the fleas have been killed; 0% means none of the fleas have been killed.

[2] = tested on: adult engorged female ticks (Rhipicephalus microplus); assay: Rhipicephalus (Boophilus) microplus injection test; settings: 168 h, egg deposition after 7 days, read-out: activity (efficacy: infertile eggs); for pest or weed control at 4 pg: application rate 4 pg/animal; for pest or weed control at 0.02 mg: application rate 20 μg/animal
Experimental: Rhipicephalus (Boophilus) microplus—Injection Test
as §1
To produce a suitable preparation of active compound, 10 mg of active compound are dissolved in 0.5 mL solvent, and the concentrate is diluted with solvent to the desired concentration.
Five adult engorged female ticks (Rhipicephalus microplus) are injected with 1 μL compound solution into the abdomen. The ticks are transferred into replica plates and incubated in a climate chamber.
After 7 days egg deposition of fertile eggs is monitored. Eggs where fertility is not visible are stored in a climate chamber till hatching after about 42 days. An efficacy of 100% means all eggs are infertile; 0% means all eggs are fertile.

[3] = tested on: Rhipicephalus microplus larvae (strain Parkhurst, resistant against synthetic pyrethroids); assay: Rhipicephalus (Boophilus) microplus in-vitro contact test, larval cattle tick; settings: after 48 hours, read-out: activity (efficacy: larvae dead or moribund); for pest or weed control at 100 g/ha: application rate 1 pg/cm^2 (=100 g/ha); for pest or weed control at 500 g/ha: application rate 5 pg/cm^2 (=500 g/ha)
Experimental: Rhipicephalus (Boophilus) microplus—In-Vitro Contact Tests Larval Cattle Tick (Strain Parkhurst. Resistant Against Synthetic Pyrethroids)
(§2) 9 mg compound is solved in 1 mL acetone and diluted with acetone to the desired concentration. 250 μL of the test solution is filled in 25 mL glass test tubes and homogeneously distributed on the inner walls by rotation and tilting on a shaking device (2 h at 30 rpm). With a compound concentration of 900 ppm, an inner surface of 44.7 cm^2 and a homogeneous distribution, a dose of 5 μg/cm^2 is achieved.
After the solvent has evaporated, each test tube is filled with 20-50 cattle tick larvae (Rhipicephalus microplus), closed with a perforated lid and incubated in a horizontal position at 85% relative humidity and 27° C. in an incubator. After 48 hours efficacy is determined. The larvae are patted on the ground of the tubes and negative geotactic behaviour is recorded.
An efficacy of 100% means all larvae are dead or moribund; 0% means no larvae are dead or moribund.

[4] = tested on: fall armyworm larvae (Spodoptera frugiperda); assay: Spodoptera frugiperda spray test; settings: 168 h, read-out: activity (mortality)
Experimental: Spodoptera frugiperda—Spray Test
Solvent: 78.0 parts by weight acetone • 1.5 parts by weight dimethylformamide
(§3) Emulsifier: alkylarylpolyglycol ether
(§4) To produce a suitable preparation of active compound, 1 part by weight of active compound is mixed with the stated amount of solvents and is diluted with water, containing an emulsifier concentration of 1000 ppm, to the desired concentration. Further test concentrations are prepared by dilution with emulsifier containing water.
Maize (Zea mays) leaf sections are sprayed with a preparation of the active ingredient of the desired concentration. Once dry, the leaf sections are infested with fall armyworm larvae (Spodoptera frugiperda).
After 7 days mortality in % is determined. 100% means all caterpillars have been killed and 0% means none of the caterpillars have been killed.

[5] = tested on: larvae of the banded cucumber beetle (Diabrotica balteata); assay: Diabrotica balteata spray test; settings: 168 h, after 7 days, read-out: activity (efficacy: seedlings grown); for pest or weed control at 100 g/ha: application rate 100 g/ha (=32 pg/well)
Experimental: Diabrotica balteata—spray test
(§5) Solvent: 78.0 parts by weight of acetone • • 1.5 parts by weight of dimethylformamide
as §3
as §4, with “solvent,” for “solvents”, “and the concentrate” for “and”
Soaked wheat seeds (Triticum aestivum) are placed in a multiple well plate filled with agar and some water and are incubated for 1 day to germinate (5 seeds per well). The germinated wheat seeds are sprayed with a test solution containing the desired concentration of the active ingredient. Afterwards each unit is infected with 10-20 larvae of the banded cucumber beetle (Diabrotica balteata).
After 7 days efficacy in % is determined. 100% means all the seedlings have grown up like in the untreated, uninfected control; 0% means none of the seedlings have grown.

[6] = tested on: green peach aphid (Myzus persicae); assay: Myzus persicae oral test; settings: 120 h, application rate 4 ppm, after 5 days
Experimental: Solvent: 100 parts by weight acetone
To produce a suitable preparation of active compound, 1 part by weight of active compound is mixed with the stated amount of solvent, and the concentrate is diluted with water to the desired concentration.
50 μL compound solution is filled in microtiter plates and 150 μL IPL41 insect medium (33%+15% sugar) is added to obtain a total volume of 200 μL per well. Afterwards the plates are sealed with parafilm through which a mixed population of the green peach aphid (Myzus persicae) can suck on the compound preparation.
After 5 days mortality in % is determined. 100% means all aphids have been killed and 0% means none of the aphids have been killed.

[7] = tested on: adult brown dog ticks (Rhipicephalus sanguineus); assay: Rhipicephalus sanguineus in-vitro contact test, adult brown dog ticks; settings: after 48 hours, read-out: activity (efficacy: ticks dead or moribund); for pest or weed control at 100 g/ha: application rate 1 pg/cm^2 (=100 g/ha); for pest or weed control at 5 µg/cm2, 500 g/ha: application rate 5 μg/cm^2 (=500 g/ha)
Experimental: Rhipicephalus sanguineus—In-Vitro Contact Tests with Adult Brown Dog Ticks
as §2
After the solvent has evaporated, each test tube is filled with 5-10 adult brown dog ticks (Rhipicephalus sanguineus), closed with a perforated lid and incubated in a lying position at room temperature and relative humidity. After 48 hours efficacy is determined. The ticks are patted on the ground of the tubes and are incubated on a heating plate at 45-50° C. for at most 5 minutes. Immotile or uncoordinated moving ticks, which are not able to escape the heat by climbing upwards, are marked as dead or moribund.
An efficacy of 100% means all ticks are dead or moribund; 0% means no ticks are dead or moribund.

[8] = tested on: larvae of the southern green stink bug (Nezara viridula); assay: Nezara viridula spray test; settings: 96 h, after 4 days; for mortality at 100 g/ha: application rate 100 g/ha; for mortality at 500 g/ha: application rate 500 g/ha
Experimental: Nezara viridula—Spray Test
as §5, §3
as §4, with “solvent,” for “solvents”, “and the concentrate” for “and”
Barley plants (Hordeum vulgare) infested with larvae of the southern green stink bug (Nezara viridula) are sprayed with a test solution containing the desired concentration of the active ingredient.
After 4 days mortality in % is determined. 100% means all the stink bugs have been killed; 0% means none of the stink bugs have been killed.

| SMILES | mortality at 100 ppm [1] | pest or weed control at 4 pg [2] | pest or weed control at 0.02 mg [2] | pest or weed control at 100 g/ha [3] | pest or weed control at 500 g/ha [3] | mortality at 100 g/ha [4] | mortality at 500 g/ha [4] | pest or weed control at 100 g/ha [5] | mortality at 4 ppm [6] | pest or weed control at 100 g/ha [7] | pest or weed control at 5 µg/cm2, 500 g/ha [7] | mortality at 100 g/ha [8] | mortality at 500 g/ha [8] | pest or weed control at 500 g/ha ([5]; application rate 500 g/ha (=160 pg/well)) |
| --- | --- | --- | --- | --- | --- | --- | --- | --- | --- | --- | --- | --- | --- | --- |
| CCCc1nc([C@H](C)NC(=O)c2cc(Cl)cc(S(C)(=O)=O)c2)n(-c2ccc(C#N)cn2)n1 [I-2] | 100% | 100% | 100% | 100% | 100% | 83% | 100% |  |  |  |  |  |  |  |
| CCS(=O)(=O)c1cc(Cl)cc(C(=O)N[C@@H](C)c2nc(C3CC3)nn2-c2ccc(C#N)cn2)c1 [I-20] | 100% | 100% | 100% | 100% | 100% | 100% |  | 80% |  |  |  |  |  |  |
| C[C@H](NC(=O)c1cc(Cl)cc(S(=O)(=O)C(F)F)c1)c1nc(C2CC2)nn1-c1ccc(C#N)cn1 [I-27] | 100% | 100% |  | 100% | 100% | 100% |  | 100% |  |  |  |  |  |  |
| COc1nc([C@H](C)NC(=O)c2cc(OC(F)(F)F)cc(C3CC3)c2)n(-c2ccc(C#N)cn2)n1 [I-44] |  | 100% |  | 100% | 100% | 100% |  | 100% | 90% | 100% | 100% |  |  |  |
| C[C@H](NC(=O)c1cc(Cl)cc(S(C)(=O)=O)c1)c1nc(C2CC2)nn1-c1ccc(Cl)cn1 [I-58] |  |  |  | 100% | 100% | 100% |  | 100% | 100% | 100% | 80% | 100% | 100% |  |
| C[C@H](NC(=O)c1cc(Cl)cc(S(=O)(=O)C2CC2)c1)c1nc(C2CC2)nn1-c1ccc(Cl)cn1 [I-59] |  |  |  | 100% | 100% | 100% |  | 80% | 100% |  |  | 100% | 100% |  |
| C[C@H](NC(=O)c1cc(F)cc(S(C)(=O)=O)c1)c1nc(C2CC2)nn1-c1ccc(Cl)cn1 [I-60] |  |  |  | 100% | 100% | 100% |  | 100% | 100% | 100% | 100% | 100% | 100% |  |
| C[C@H](NC(=O)c1cc(OC(F)F)cc(S(C)(=O)=O)c1)c1nc(C2CC2)nn1-c1ccc(C#N)cn1 [I-65] |  |  |  |  |  | 100% |  | 100% | 100% |  |  | 100% | 100% |  |
| C[C@H](NC(=O)c1cc(OC(F)(F)F)cc(S(C)(=O)=O)c1)c1nc(C2CC2)nn1-c1ccc(Cl)cn1 [I-69] |  |  |  |  |  | 100% |  | 100% | 100% |  |  | 90% |  |  |
| COc1nc([C@H](C)NC(=O)c2cc(Br)cc(C3(F)CC3)c2)n(-c2ccc(C#N)cn2)n1 [I-71] |  |  |  | 100% | 100% | 100% |  | 100% | 100% |  |  |  |  |  |
| COc1nc([C@H](C)NC(=O)c2cc(OC(F)F)cc(C3CC3)c2)n(-c2ccc(C#N)cn2)n1 [I-74] |  |  |  | 100% | 100% | 100% |  | 80% | 100% |  |  |  |  |  |
| COc1nc([C@H](C)NC(=O)c2cc(OC(F)(F)F)cc(S(C)(=O)=O)c2)n(-c2ccc(C#N)cn2)n1 [I-75] |  |  |  |  |  | 100% |  | 80% | 100% |  |  | 100% | 90% |  |
| COc1nc([C@H](C)NC(=O)c2cc(OC(F)F)cc(C3CC3)c2)n(-c2ncc(Cl)cn2)n1 [I-76] |  |  |  | 100% | 100% | 100% |  | 100% | 100% |  |  |  |  |  |
| C[C@H](NC(=O)c1cc(Cl)cc(C2(C#N)CC2)c1)c1ncnn1-c1nccs1 [II-5] | 100% | 100% | 100% |  |  |  | 100% |  |  |  |  |  |  | 100% |
| C[C@H](NC(=O)c1cc(C(F)(F)F)cc(S(C)(=O)=O)c1)c1ncnn1-c1ccc(S(C)(=O)=O)cn1 [II-56, 3-(methylsulfonyl)-N-[(1S)-1-{1-[5-(methylsulfonyl)pyridin-2-yl]-1H-1,2,4-triazol-5-yl}ethyl]-5-(trifluoromethyl)benzamide] | 100% | 100% |  |  |  |  |  |  |  |  |  |  |  |  |
| C[C@H](NC(=O)c1cc(OC(F)F)cc(C2CC2)c1)c1ncnn1-c1ccc(C#N)cn1 [II-62] |  | 100% |  | 100% | 100% | 100% |  | 100% | 100% | 100% | 100% |  |  |  |

Reference: patent publication US20260206761A1, “HETEROARYL-TRIAZOLE COMPOUNDS AS PESTICIDES” (Bayer Aktiengesellschaft, priority 2019, published 2026)
